# Laboratory results from patent US9833497B2, “Human originated EGF domain proteins and use of the same” (CHENGDU SOURCEBIO LIMITED-LIABILITY COMPANY, priority 2013, dated 2017).
# How the values were obtained:
# Type in all cases: cell-based
# [1] = system: E. coli DH5α; assay: Antibacterial activity: MIC and growth curve against E. coli DH5α in 96-well plate; conditions: minimal inhibitory concentration against E. coli DH5α; 96-well plate, 5×10^5 CFU/mL, 37° C., judged after 8 h
# How it was run: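 Log-phase bacteria (OD600 ~0.5) resuspended in LB at 5×10^5 CFU/mL, exposed to recombinant protein at 50, 25, 12.5 μg/mL final in triplicate, 37 °C shaking at 175 rpm. OD600 read every 30 min; MIC is lowest concentration showing no growth.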
# [2] = system: E. coli BL21; assay: MIC against Gram-negative bacteria: E. coli BL21; conditions: 5×10^5 CFU/mL; for MIC against E. coli BL21 / MIC E. coli BL21: 96-well plate, 37° C., 10 h
# How it was run: (§1)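 Two-fold serial dilutions of each purified human EGF domain protein, three replicate wells per level, were combined with bacteria at a final 5×10^5 CFU/mL in LB. Cultures were shaken at 175 rpm, 37° C. The MIC was taken as the minimum concentration preventing growth.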
# [3] = system: Pseudomonas aeruginosa; assay: MIC against Gram-negative bacteria: Pseudomonas aeruginosa; conditions: 5×10^5 CFU/mL; for MIC against P. aeruginosa: Pseudomonas aeruginosa; for MIC against P. aeruginosa / MIC P. aeruginosa: 96-well plate, 37° C., 10 h
# How it was run: as §1
# [4] = system: Klebsiella pneumonia; assay: MIC against Gram-negative bacteria: Klebsiella pneumonia; conditions: 5×10^5 CFU/mL; for MIC against K. pneumonia: Klebsiella pneumonia; for MIC against K. pneumonia / MIC K. pneumonia: 96-well plate, 37° C., 10 h
# How it was run: as §1
# [5] = system: Enterobacter cloacae; assay: MIC against Gram-negative bacteria: Enterobacter cloacae; conditions: 5×10^5 CFU/mL; for MIC against E. cloacae: Enterobacter cloacae; for MIC against E. cloacae / MIC E. cloacae: 96-well plate, 37° C., 10 h
# How it was run: as §1
# [6] = system: Aeromonas hydrophila; assay: MIC against Gram-negative bacteria: Aeromonas hydrophila; conditions: 5×10^5 CFU/mL; for MIC against A. hydrophila: Aeromonas hydrophila; for MIC against A. hydrophila / MIC A. hydrophila: 96-well plate, 37° C., 10 h
# How it was run: as §1
# [7] = system: Citrobacter diversus; assay: MIC against Gram-negative bacteria: Citrobacter diversus; conditions: 5×10^5 CFU/mL; for MIC against C. diversus: Citrobacter diversus; for MIC against C. diversus / MIC C. diversus: 96-well plate, 37° C., 10 h
# How it was run: as §1
# [8] = system: Moraxella catarrhalis; assay: MIC against Gram-negative bacteria: Moraxella catarrhalis; conditions: 5×10^5 CFU/mL; for MIC against M. catarrhalis: Moraxella catarrhalis; for MIC against M. catarrhalis / MIC M. catarrhalis: 96-well plate, 37° C., 10 h
# How it was run: as §1
# [9] = system: Proteus mirabilis; assay: MIC against Gram-negative bacteria: Proteus mirabilis; conditions: 5×10^5 CFU/mL; for MIC against P. mirabilis: Proteus mirabilis; for MIC against P. mirabilis / MIC P. mirabilis: 96-well plate, 37° C., 10 h
# How it was run: as §1
# [10] = system: Proteus vulgaris; assay: MIC against Gram-negative bacteria: Proteus vulgaris; conditions: 5×10^5 CFU/mL; for MIC against P. vulgaris: Proteus vulgaris; for MIC against P. vulgaris / MIC P. vulgaris: 96-well plate, 37° C., 10 h
# How it was run: as §1
# [11] = system: Serratia marcescens; assay: MIC against Gram-negative bacteria: Serratia marcescens; conditions: 5×10^5 CFU/mL; for MIC against S. marcescens: Serratia marcescens; for MIC against S. marcescens / MIC S. marcescens: 96-well plate, 37° C., 10 h
# How it was run: as §1
# [12] = E. coli BL21, 10 h cultivation at 37° C.
# [13] = P. aeruginosa, 10 h cultivation at 37° C.
# [14] = K. pneumonia, 10 h cultivation at 37° C.
# [15] = E. cloacae, 10 h cultivation at 37° C.
# [16] = A. hydrophila, 10 h cultivation at 37° C.
# [17] = C. diversus, 10 h cultivation at 37° C.
# [18] = M. catarrhalis, 10 h cultivation at 37° C.
# [19] = P. mirabilis, 10 h cultivation at 37° C.
# [20] = P. vulgaris, 10 h cultivation at 37° C.
# [21] = S. marcescens, 10 h cultivation at 37° C.
substance,measurement,setting,value
PRT159 (EYDACQRKPCQNNASCIDANEKQDGSNFTCVCLPGYTGELCQ; listed as Homo sapiens),MIC,[1],25 µg/mL
same,MIC (μg/mL) E. coli BL21,[2]; [12],50 µg/mL
same,MIC (μg/mL) P. aeruginosa,[3]; [13],25 µg/mL
same,MIC (μg/mL) K. pneumonia,[4]; [14],12.5 µg/mL
same,MIC (μg/mL) E. cloacae,[5]; [15],12.5 µg/mL
same,MIC (μg/mL) A. hydrophila,[6]; [16],12.5 µg/mL
same,MIC (μg/mL) C. diversus,[7]; [17],12.5 µg/mL
same,MIC (μg/mL) M. catarrhalis,[8]; [18],12.5 µg/mL
same,MIC (μg/mL) P. mirabilis,[9]; [19],25 µg/mL
same,MIC (μg/mL) P. vulgaris,[10]; [20],12.5 µg/mL
same,MIC (μg/mL) S. marcescens,[11]; [21],25 µg/mL
PRT1290 (KCNPCLSNPCKNDGTCNSDPVDFYRCTCPYGFKGQDCD; listed as Homo sapiens),MIC,[1],50 µg/mL
same,MIC against E. coli BL21,[2]; E. coli BL21,12.5 µg/mL
same,MIC against P. aeruginosa,[3],50 µg/mL
same,MIC against K. pneumonia,[4],12.5 µg/mL
same,MIC against E. cloacae,[5],50 µg/mL
same,MIC against A. hydrophila,[6],25 µg/mL
same,MIC against C. diversus,[7],12.5 µg/mL
same,MIC against M. catarrhalis,[8],25 µg/mL
same,MIC against P. mirabilis,[9],50 µg/mL
same,MIC against P. vulgaris,[10],12.5 µg/mL
same,MIC against S. marcescens,[11],12.5 µg/mL
PRT1263 (DVDECAQGLDDCHADALCQNTPTSYKCSCKPGYQGEGRQCE; listed as Homo sapiens),MIC,[1],100 µg/mL
same,MIC against E. coli BL21,[2]; E. coli BL21,50 µg/mL
same,MIC against P. aeruginosa,[3],12.5 µg/mL
same,MIC against K. pneumonia,[4],25 µg/mL
same,MIC against E. cloacae,[5],50 µg/mL
same,MIC against A. hydrophila,[6],12.5 µg/mL
same,MIC against C. diversus,[7],50 µg/mL
same,MIC against M. catarrhalis,[8],12.5 µg/mL
same,MIC against P. mirabilis,[9],50 µg/mL
same,MIC against P. vulgaris,[10],12.5 µg/mL
same,MIC against S. marcescens,[11],50 µg/mL
PRT873 (CECYGHSNRCSYIDFLNVVTCVSCKHNTRGQHCQHCRLGYYRNGSAELDDENVCIE; listed as Homo sapiens),MIC,[1],12.5 µg/mL
same,MIC (μg/mL) E. coli BL21,[2]; [12],50 µg/mL
same,MIC (μg/mL) P. aeruginosa,[3]; [13],12.5 µg/mL
same,MIC (μg/mL) K. pneumonia,[4]; [14],25 µg/mL
same,MIC (μg/mL) E. cloacae,[5]; [15],25 µg/mL
same,MIC (μg/mL) A. hydrophila,[6]; [16],50 µg/mL
same,MIC (μg/mL) C. diversus,[7]; [17],25 µg/mL
same,MIC (μg/mL) M. catarrhalis,[8]; [18],12.5 µg/mL
same,MIC (μg/mL) P. mirabilis,[9]; [19],25 µg/mL
same,MIC (μg/mL) P. vulgaris,[10]; [20],50 µg/mL
same,MIC (μg/mL) S. marcescens,[11]; [21],12.5 µg/mL
PRT429 (DVNECEAQRCSQECANIYGSYQCYCRQGYQLAEDGHTCT; listed as Homo sapiens),MIC,[1],12.5 µg/mL
same,MIC,[2]; [12],12.5 µg/mL
same,MIC,[3]; [13],50 µg/mL
same,MIC,[4]; [14],12.5 µg/mL
same,MIC,[5]; [15],50 µg/mL
same,MIC,[6]; [16],12.5 µg/mL
same,MIC,[7]; [17],50 µg/mL
same,MIC,[8]; [18],12.5 µg/mL
same,MIC,[9]; [19],25 µg/mL
same,MIC,[10]; [20],50 µg/mL
same,MIC,[11]; [21],25 µg/mL
PRT683 (DIDECSQDPSLCLPHGACKNLQGSYVCVCDEGFTPTQDQHGCE; listed as Homo sapiens),MIC,[1],12.5 µg/mL
same,MIC E. coli BL21,[2],25 µg/mL
same,MIC P. aeruginosa,[3],50 µg/mL
same,MIC K. pneumonia,[4],25 µg/mL
same,MIC E. cloacae,[5],12.5 µg/mL
same,MIC A. hydrophila,[6],50 µg/mL
same,MIC C. diversus,[7],25 µg/mL
same,MIC M. catarrhalis,[8],25 µg/mL
same,MIC P. mirabilis,[9],12.5 µg/mL
same,MIC P. vulgaris,[10],50 µg/mL
same,MIC S. marcescens,[11],25 µg/mL
PRT616 (CDCNGKSRQCIFDRELHRQTGNGFRCLNCNDNTDGIHCEKCKNGFYRHRERDRCLP; listed as Homo sapiens),MIC,[1],25 µg/mL
same,MIC E. coli BL21,[2],12.5 µg/mL
same,MIC P. aeruginosa,[3],25 µg/mL
same,MIC K. pneumonia,[4],50 µg/mL
same,MIC E. cloacae,[5],12.5 µg/mL
same,MIC A. hydrophila,[6],25 µg/mL
same,MIC C. diversus,[7],12.5 µg/mL
same,MIC M. catarrhalis,[8],25 µg/mL
same,MIC P. mirabilis,[9],12.5 µg/mL
same,MIC P. vulgaris,[10],25 µg/mL
same,MIC S. marcescens,[11],12.5 µg/mL
